Source: US20210000727A1, “DITHIAZOCANE COMPOUNDS FOR THE COSMETIC USE THEREOF” (L'OREAL, priority 2017, published 2021)

Tests used:
[1] = system: normal human melanocytes; test: Depigmenting activity (reduction of melanin production) in normal human melanocytes in vitro; assay type: cell-based; settings: Melanocyte, 72 hours incubation, optical density of melanin, maximum concentration tested 200 μM, read-out: IC50 (concentration at which a 50% decrease in melanin synthesis is achieved)
Experimental: The measurement of the depigmenting activity (reduction of melanin production) of compounds of formula (I) was performed by assaying normal human melanocytes in vitro as follows.
First of all, normal human melanocytes are cultured and dispensed into wells. After 24 hours, the culture medium was replaced with a medium containing compounds of formula (I) to be evaluated. The cells were incubated 72 hours before measurement of the final optical density, which measures the amount of melanin produced by the melanocytes. A dose effect is performed using a wide concentration range of the compounds evaluated. Thus, by making the concentrations and the melanin measurements correspond, it is possible to determine an IC50 in μM: concentration at which a 50% decrease in melanin synthesis is achieved.
Various test campaigns were conducted and the results collated in the table below.

[2] = system: coculture of keratinocytes and melanocytes; test: Coculture experiment: melanogenesis-modulating effect and cytotoxicity; assay type: cell-based; settings: for IC50: melanin optical density, read-out: IC50 (concentration for which 50% of the melanin synthesis is inhibited)
Experimental: The melanogenesis-modulating effect of compound 1 was measured according to the method described in patent FR-A-2734825, and also in the article by R. Schmidt, P. Krien and M. Régnier, Anal. Biochem., 235(2), 113-18, 1996. This test is performed on a coculture of keratinocytes and melanocytes.
The following were determined for the test compound: • the cytotoxicity, • the inhibitory activity on melanin synthesis, by estimating the melanin optical density.
The IC50 values (concentration for which 50% of the melanin synthesis is inhibited) were determined.

[3] = system: pigmented reconstructed epidermis; test: Depigmenting activity on pigmented reconstructed epidermis (melanin quantified by image analysis, Fontana Masson); assay type: cell-based, human; settings: 300 μM in DMSO, control DMSO, Mann-Whitney test, pValue<0.05
Experimental: Compositions comprising 300 μM of compound 1 in DMSO were applied to samples of pigmented reconstructed epidermis (cf. EP 1 878 790). The control is DMSO.
The melanin was quantified by image analysis on histological slices after staining with Fontana Masson dye. Each sample of coloured epidermis is photographed over its entire length using a camera connected to a microscope. The melanin is thresholded and the number of melanin pixels is measured in each field using automated image analysis software. A non-parametric statistical test is performed in order to determine the significance of the measurements (Mann-Whitney test, see FIG. 1).
The pigmented reconstructed epidermis standard study model was published by: Regnier M, Duval C, Galey J B, Philippe M, Lagrange A, Tuloup R, Schmidt R, Cellular and Molecular Biology, 1999, 45, 7, 969-980: “Keratinocyte-Melanocyte co-cultures and pigmented reconstructed human epidermis: models to study modulation of melanogenesis”.

Compound | IC50 [1] | cytotoxicity [2] | IC50 [2] | depigmenting activity (melanin quantified by image analysis) [3]
CC1(C)CSSCC(C(=O)NCC(=O)O)NC1=O (stereo not shown) [Compound 12′, N-[(7,7-dimethyl-6-oxo-1,2,5-dithiazocan-4-yl)carbonyl]glycine] | 63.8 µM |  |  | 
CN(C)C(=O)C1CSSCC(C)(C)C(=O)N1 (stereo not shown) [Compound 4′, N,N,7,7-tetramethyl-6-oxo-1,2,5-dithiazocane-4-carboxamide] | 4.23 µM |  |  | 
CCOC(=O)C1CSSCC(C)(C)C(=O)N1 (stereo not shown) [Compound 5′, ethyl 7,7-dimethyl-6-oxo-1,2,5-dithiazocane-4-carboxylate] |  | non-cytotoxic | 0.79 µM | 
CC1(C)CSSCC(C(=O)OCC(O)CO)NC1=O (stereo not shown) [Compound 18′, 2,3-dihydroxypropyl 7,7-dimethyl-6-oxo-1,2,5-dithiazocane-4-carboxylate] | 9.8 µM |  |  | 
COC(=O)[C@@H]1CSSCC(C)(C)C(=O)N1 [Compound 2, methyl 7,7-dimethyl-6-oxo-1,2,5-dithiazocane-4(R)-carboxylate] | 13.6 µM | non-cytotoxic | 0.74 µM | 
CC1(C)CSSCC(C(N)=O)NC1=O (stereo not shown) [Compound 3′, 7,7-dimethyl-6-oxo-1,2,5-dithiazocane-4-carboxamide] | 2.35 µM |  |  | 
COCC(C)OCC(C)OCC(C)OC(=O)C1CSSCC(C)(C)C(=O)N1 (stereo not shown) [Compound 11′, 1-({1-[(1-methoxypropan-2-yl)oxy]propan-2-yl}oxy)propan-2-yl 7,7-dimethyl-6-oxo-1,2,5-dithiazocane-4-carboxylate] | 10.7 µM |  |  | 
CCOC(=O)C(Cc1ccccc1)NC(=O)C1CSSCC(C)(C)C(=O)N1 (stereo not shown) [Compound 9′, ethyl N-[(7,7-dimethyl-6-oxo-1,2,5-dithiazocan-4-yl)carbonyl]phenylalaninate] | 20.8 µM |  |  | 
CCOC(=O)CNC(=O)C1CSSCC(C)(C)C(=O)N1 (stereo not shown) [Compound 8′, ethyl N-[(7,7-dimethyl-6-oxo-1,2,5-dithiazocan-4-yl)carbonyl]glycinate] | 0.87 µM | non-cytotoxic | 1.23 µM | 
CC1(C)CSSCC(C(=O)NCCO)NC1=O (stereo not shown) [Compound 7′, N-(2-hydroxyethyl)-7,7-dimethyl-6-oxo-1,2,5-dithiazocane-4-carboxamide] | < 0.4 µM | non-cytotoxic | 1.04 µM | 
COCCOCCOC(=O)C1CSSCC(C)(C)C(=O)N1 (stereo not shown) [Compound 10′, 2-(2-methoxyethoxy)ethyl 7,7-dimethyl-6-oxo-1,2,5-dithiazocane-4-carboxylate] | 5.26 µM | non-cytotoxic | 7.62 µM | 
CCCCCCCNC(=O)C1CSSCC(C)(C)C(=O)N1 (stereo not shown) [Compound 13′, N-heptyl-7,7-dimethyl-6-oxo-1,2,5-dithiazocane-4-carboxamide] | 0.66 µM |  |  | 
CC1(C)CSSC[C@@H](C(=O)O)NC1=O [Compound 1, 7,7-dimethyl-6-oxo-1,2,5-dithiazocane-4-(R)-carboxylic acid] | 62.5 µM | non-cytotoxic | 9.6 µM | Significant depigmenting activity
CC(C)OC(=O)C1CSSCC(C)(C)C(=O)N1 (stereo not shown) [Compound 6′, propan-2-yl 7,7-dimethyl-6-oxo-1,2,5-dithiazocane-4-carboxylate] | 1.9 µM | non-cytotoxic | 1.57 µM | 
